Reference: PubChem BioAssay (NCI)
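GI50: concentration for 50% inhibition of growth. TGI is the concentration that stops growth completely.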

Key:
Assay in all cases: NCI anticancer screen, dose series, 384-well format
A498 renal = system: A498 renal
A549 NSCLC = system: A549 NSCLC
ACHN renal = system: ACHN renal
BT-549 breast = system: BT-549 breast
CAKI-1 renal = system: CAKI-1 renal
COLO 205 colon = system: COLO 205 colon
DU-145 prostate = system: DU-145 prostate
EKVX NSCLC = system: EKVX NSCLC
HCC-2998 colon = system: HCC-2998 colon
HCT-116 colon = system: HCT-116 colon
HCT-15 colon = system: HCT-15 colon
HL-60(TB) leukemia = system: HL-60(TB) leukemia
HOP-62 NSCLC = system: HOP-62 NSCLC
HOP-92 NSCLC = system: HOP-92 NSCLC
HS 578T breast = system: HS 578T breast
HT29 colon = system: HT29 colon
IGROV1 ovarian = system: IGROV1 ovarian
KM12 colon = system: KM12 colon
LOX IMVI melanoma = system: LOX IMVI melanoma
M14 melanoma = system: M14 melanoma
MALME-3M melanoma = system: MALME-3M melanoma
MCF7 breast = system: MCF7 breast
MDA-MB-231 breast = system: MDA-MB-231 breast
MDA-MB-435 melanoma = system: MDA-MB-435 melanoma
MDA-MB-468 breast = system: MDA-MB-468 breast
MOLT-4 leukemia = system: MOLT-4 leukemia
NCI-H226 lung = system: NCI-H226 lung

Q: Which results are given for `CCc1c[nH]c2ncnc(N3CC[C@](N)(CNC(=O)c4ccc(F)cc4F)C3)c12`?
A: GI50 (A498 renal): 0.136 µM; TGI (A498 renal): 2.09 µM; GI50 (A549 NSCLC): 10.8 µM; TGI (A549 NSCLC): > 100 µM; GI50 (ACHN renal): 4.85 µM; TGI (ACHN renal): > 100 µM; GI50 (BT-549 breast): 1.27 µM; TGI (BT-549 breast): 18.4 µM; GI50 (CAKI-1 renal): 5.18 µM; TGI (CAKI-1 renal): > 100 µM; GI50 (COLO 205 colon): 4.95 µM; TGI (COLO 205 colon): 28.6 µM; GI50 (DU-145 prostate): 6.69 µM; TGI (DU-145 prostate): > 100 µM; GI50 (EKVX NSCLC): 7.28 µM; TGI (EKVX NSCLC): 46.2 µM; GI50 (HCC-2998 colon): 3.13 µM; TGI (HCC-2998 colon): 88 µM; GI50 (HCT-116 colon): 6.21 µM; TGI (HCT-116 colon): > 100 µM; GI50 (HCT-15 colon): 5.47 µM; TGI (HCT-15 colon): > 100 µM; GI50 (HL-60(TB) leukemia): 10.4 µM; TGI (HL-60(TB) leukemia): 23.5 µM; GI50 (HOP-62 NSCLC): 6.34 µM; TGI (HOP-62 NSCLC): 82.3 µM; GI50 (HOP-92 NSCLC): 29.6 µM; TGI (HOP-92 NSCLC): > 100 µM; GI50 (HS 578T breast): 2.53 µM; TGI (HS 578T breast): 95.3 µM; GI50 (HT29 colon): 3.98 µM; TGI (HT29 colon): > 100 µM; GI50 (IGROV1 ovarian): 0.149 µM; TGI (IGROV1 ovarian): 1.71 µM; GI50 (KM12 colon): 0.959 µM; TGI (KM12 colon): > 100 µM; GI50 (LOX IMVI melanoma): 18.8 µM; TGI (LOX IMVI melanoma): > 100 µM; GI50 (M14 melanoma): 14.4 µM; TGI (M14 melanoma): > 100 µM; GI50 (MALME-3M melanoma): 8.62 µM; TGI (MALME-3M melanoma): 28.6 µM; GI50 (MCF7 breast): 0.375 µM; TGI (MCF7 breast): > 100 µM; GI50 (MDA-MB-231 breast): 68.8 µM; TGI (MDA-MB-231 breast): > 100 µM; GI50 (MDA-MB-435 melanoma): 15.4 µM; TGI (MDA-MB-435 melanoma): 73.4 µM; GI50 (MDA-MB-468 breast): 0.454 µM; TGI (MDA-MB-468 breast): 18.9 µM; GI50 (MOLT-4 leukemia): 0.237 µM; TGI (MOLT-4 leukemia): 1.76 µM; GI50 (NCI-H226 lung): 9.86 µM; TGI (NCI-H226 lung): > 100 µM
